Source: PubChem BioAssay (NCI)
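GI50 = concentration required for 50% inhibition of growth. At the TGI there is no net growth.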

Key:
Test in all cases: NCI anticancer screen, dose series, 384-well format
786-0 renal = test system: 786-0 renal
A498 renal = test system: A498 renal
A549 NSCLC = test system: A549 NSCLC
ACHN renal = test system: ACHN renal
BT-549 breast = test system: BT-549 breast
CAKI-1 renal = test system: CAKI-1 renal
CCRF-CEM leukemia = test system: CCRF-CEM leukemia
COLO 205 colon = test system: COLO 205 colon
DU-145 prostate = test system: DU-145 prostate
EKVX NSCLC = test system: EKVX NSCLC
HCC-2998 colon = test system: HCC-2998 colon
HCT-116 colon = test system: HCT-116 colon
HCT-15 colon = test system: HCT-15 colon
HL-60(TB) leukemia = test system: HL-60(TB) leukemia
HOP-62 NSCLC = test system: HOP-62 NSCLC
HOP-92 NSCLC = test system: HOP-92 NSCLC
HS 578T breast = test system: HS 578T breast
IGROV1 ovarian = test system: IGROV1 ovarian
KM12 colon = test system: KM12 colon
LOX IMVI melanoma = test system: LOX IMVI melanoma
M14 melanoma = test system: M14 melanoma
MALME-3M melanoma = test system: MALME-3M melanoma
MCF7 breast = test system: MCF7 breast
MDA-MB-231 breast = test system: MDA-MB-231 breast
MDA-MB-435 melanoma = test system: MDA-MB-435 melanoma
MDA-MB-468 breast = test system: MDA-MB-468 breast
MOLT-4 leukemia = test system: MOLT-4 leukemia
NCI-H226 lung = test system: NCI-H226 lung
NCI-H23 lung = test system: NCI-H23 lung
NCI-H322M lung = test system: NCI-H322M lung
NCI-H460 NSCLC = test system: NCI-H460 NSCLC
NCI-H522 lung = test system: NCI-H522 lung
NCI/ADR-RES ovarian = test system: NCI/ADR-RES ovarian
OVCAR-3 ovarian = test system: OVCAR-3 ovarian
OVCAR-4 ovarian = test system: OVCAR-4 ovarian
OVCAR-5 ovarian = test system: OVCAR-5 ovarian
OVCAR-8 ovarian = test system: OVCAR-8 ovarian
PC-3 prostate = test system: PC-3 prostate
RPMI-8226 leukemia = test system: RPMI-8226 leukemia
RXF 393 renal = test system: RXF 393 renal
SF-268 CNS = test system: SF-268 CNS
SF-295 CNS = test system: SF-295 CNS
SF-539 CNS = test system: SF-539 CNS
SK-MEL-28 melanoma = test system: SK-MEL-28 melanoma
SK-MEL-5 melanoma = test system: SK-MEL-5 melanoma
SK-OV-3 ovarian = test system: SK-OV-3 ovarian
SN12C renal = test system: SN12C renal
SNB-19 CNS = test system: SNB-19 CNS
SNB-75 CNS = test system: SNB-75 CNS
SR leukemia = test system: SR leukemia
SW-620 colon = test system: SW-620 colon
T-47D breast = test system: T-47D breast
TK-10 renal = test system: TK-10 renal
U251 glioblastoma = test system: U251 glioblastoma
UACC-257 melanoma = test system: UACC-257 melanoma
UACC-62 melanoma = test system: UACC-62 melanoma
UO-31 renal = test system: UO-31 renal

## COc1cc2ncnc(Nc3ccc(F)c(Cl)c3)c2cc1NC(=O)/C=C/CN1CCCCC1
786-0 renal
  GI50: 0.784 µM
  TGI: 2.29 µM
A498 renal
  GI50: 0.471 µM
  TGI: 2.19 µM
A549 NSCLC
  GI50: 3.31 µM
  TGI: 4.86 µM
ACHN renal
  TGI: 1.87 µM
BT-549 breast
  GI50: 1.01 µM
  TGI: 2.43 µM
CAKI-1 renal
  GI50: 0.618 µM
  TGI: 2.14 µM
CCRF-CEM leukemia
  GI50: 1.92 µM
  TGI: 3.37 µM
COLO 205 colon
  GI50: 4.04 µM
  TGI: 5.48 µM
DU-145 prostate
  GI50: 0.395 µM
  TGI: 2.14 µM
EKVX NSCLC
  TGI: 3.81 µM
HCC-2998 colon
  GI50: 5.29 µM
HCT-116 colon
  GI50: 1.57 µM
  TGI: 2.98 µM
HCT-15 colon
  GI50: 1.18 µM
  TGI: 4.17 µM
HL-60(TB) leukemia
  GI50: 0.973 µM
  TGI: 2.34 µM
HOP-62 NSCLC
  GI50: 4.21 µM
  TGI: 5.84 µM
HOP-92 NSCLC
  GI50: 1.16 µM
  TGI: 2.4 µM
HS 578T breast
  GI50: 0.951 µM
  TGI: 2.81 µM
IGROV1 ovarian
  GI50: < 0.0273 µM
  TGI: 1.56 µM
KM12 colon
  GI50: 2.05 µM
  TGI: 4.37 µM
LOX IMVI melanoma
  GI50: 2.54 µM
  TGI: 5.01 µM
M14 melanoma
  GI50: 1.74 µM
  TGI: 3.14 µM
MALME-3M melanoma
  GI50: 1.52 µM
  TGI: 2.86 µM
MCF7 breast
  GI50: 3.17 µM
  TGI: 4.96 µM
MDA-MB-231 breast
  GI50: 1.23 µM
  TGI: 2.49 µM
MDA-MB-435 melanoma
  GI50: 1.78 µM
  TGI: 3.26 µM
MDA-MB-468 breast
  GI50: < 0.01 µM
  TGI: < 0.0199 µM
MOLT-4 leukemia
  GI50: 0.803 µM
  TGI: 2.19 µM
NCI-H226 lung
  GI50: 3.53 µM
  TGI: 5 µM
NCI-H23 lung
  GI50: 3.17 µM
  TGI: 5.33 µM
NCI-H322M lung
  GI50: < 0.0221 µM
  TGI: 0.15 µM
NCI-H460 NSCLC
  GI50: 1.72 µM
  TGI: 3.41 µM
NCI-H522 lung
  GI50: < 0.0452 µM
  TGI: 0.946 µM
NCI/ADR-RES ovarian
  GI50: 1.14 µM
  TGI: 2.37 µM
OVCAR-3 ovarian
  GI50: 0.586 µM
  TGI: 2.04 µM
OVCAR-4 ovarian
  GI50: 1.18 µM
  TGI: 2.47 µM
OVCAR-5 ovarian
  GI50: 1.66 µM
  TGI: 5.04 µM
OVCAR-8 ovarian
  GI50: 3.43 µM
  TGI: 4.92 µM
PC-3 prostate
  GI50: 1.67 µM
  TGI: 3.18 µM
RPMI-8226 leukemia
  GI50: 1.51 µM
  TGI: 2.85 µM
RXF 393 renal
  GI50: 1.01 µM
  TGI: 3.05 µM
SF-268 CNS
  GI50: 1.68 µM
  TGI: 4.33 µM
SF-295 CNS
  GI50: 4.83 µM
  TGI: 7.34 µM
SF-539 CNS
  GI50: 1.65 µM
  TGI: 3.03 µM
SK-MEL-28 melanoma
  GI50: 1.62 µM
  TGI: 2.98 µM
SK-MEL-5 melanoma
  GI50: 1.6 µM
  TGI: 3.67 µM
SK-OV-3 ovarian
  GI50: 0.619 µM
  TGI: 5.93 µM
SN12C renal
  GI50: 0.595 µM
  TGI: 2.24 µM
SNB-19 CNS
  GI50: 2.09 µM
  TGI: 6.56 µM
SNB-75 CNS
  GI50: 0.775 µM
  TGI: 3.01 µM
SR leukemia
  GI50: 0.883 µM
  TGI: 2.21 µM
SW-620 colon
  GI50: 1.62 µM
  TGI: 3.02 µM
T-47D breast
  TGI: 3.92 µM
TK-10 renal
  GI50: < 0.0192 µM
  TGI: 3.92 µM
U251 glioblastoma
  GI50: 4.09 µM
  TGI: 5.53 µM
UACC-257 melanoma
  GI50: 1.63 µM
  TGI: 3.08 µM
UACC-62 melanoma
  GI50: 1.59 µM
  TGI: 2.96 µM
UO-31 renal
  GI50: 0.639 µM
  TGI: 2.2 µM
